Values quoted from earlier work, collected in patent publication US10912731B2, “Biphasic oral care compositions” (Colgate-Palmolive Company, priority 2017, dated 2021).

Settings: aqueous solution

For NCCCC[C@H](N)C(=O)O [lysine], the Isoelectric point is given as 9.7 pH.
